Assays:
Type in all cases: cell-based, human
[1] = tested on: epidermal melanocytes (EM); assay: Melanin content in epidermal melanocytes (EM); settings: 4 days incubation, baseline = 100%
Procedure: (§1) Melanocytes are isolated and cultured either from hair follicles or epidermal skin derived from a normal adult scalp biopsy. Follicular and epidermal melanocytes are passaged in T25 plastic culture flasks to maximum 4th to maximize in vivo-like behavior. Cells are seeded into flasks and after 2 days are incubated with test substances added to the cell growth medium. The experimental set-up includes flasks in which the cells are either not treated (control) or incubated for 4 days with the appropriate amount of opioid antagonists, to assess the effect on melanin production.
(§2) After 4 days incubation, control and treated cells are collected and melanin is extracted from lysed cells. Melanin is quantified by measuring the spectrophotometric OD at 475 nm and calculating against a standardized curve. The resulting value is standardized against the number of cells counted per treatment and is given as micrograms of melanin per million cells. As control known melanin production inducing references IBMX and full medium are used.

[2] = tested on: hair follicle melanocytes (HFM); assay: Melanin content in hair follicle melanocytes (HFM); settings: 4 days incubation, baseline = 100%
From the text: Particularly, the activity of an agent in blocking an opioid receptor can be further determined by measuring the efficacy of the agent to cause a substantial increase of the total intracellular melanin production in human primary follicular melanocytes.
The effect of opioid antagonists on melanin production in hair follicular melanocytes can be measured in a cell-based in vitro assay.
Melanocytes are isolated and cultured from hair follicles derived from a normal adult scalp biopsy. Follicular melanocytes are passaged in T25 plastic culture flasks to maximum 4th to maximize in vivo-like behavior. Cells are seeded into flasks and after 2 days are incubated with test substances added to the cell growth medium. The experimental set-up includes flasks in which the cells are either not treated (control) or incubated for 4 days with the appropriate amount of opioid antagonists, to assess the effect on melanin production.
After 4 days incubation, control and treated cells are collected and melanin is extracted from lysed cells. Melanin is quantified by measuring the spectrophotometric OD at 475 nm and calculating against a standardized curve. The resulting value is standardized against the number of cells counted per treatment and is given as micrograms of melanin per million cells.
as §1, §2

[3] = tested on: hair follicle melanocytes; assay: Proliferation of hair follicle melanocytes (direct cell counting, hemocytometry); settings: hair follicle cells, baseline = 100%
Procedure: as §1
(§3) Furthermore, the hair follicle cells were analysed for their proliferation and dentricity. Proliferation has been assessed by direct cell counting using hemocytometry. Cell dendricity has been assessed by phase contrast microscopy with representative photo documentation. It can be seen that the opioate receptor antagonists also have an effect on the proliferation and dentricity further supporting the use of the opiate receptor antagonists for the prevention of the graying of hair and/or for restoration and/or maintenance of the natural hair color

[4] = tested on: hair follicle melanocytes; assay: Dendricity of hair follicle melanocytes (phase contrast microscopy); settings: hair follicle cells, baseline = 100%
Procedure: as §1, §3

Compound | Melanin content in EM ([1]; 1 μM) [%] | Melanin content in EM ([1]; 100 μM) [%] | Melanin content in HFM ([2]; 1 μM) [%] | Melanin content in HFM ([2]; 100 μM) [%] | Proliferation of melanocytes ([3]; 1 μM) [%] | Dentricity ([4]; 1 μM) [%] | Melanin content in HFM ([2]; concentration not given) [%] | Proliferation of melanocytes ([3]; concentration not given) [%] | Dentricity ([4]; concentration not given) [%] | Dentricity ([4]; 100 μM) [%]
C=CCN1CC[C@]23c4c5ccc(O)c4O[C@H]2/C(=N/N=C2\CC[C@@]4(O)[C@H]6Cc7ccc(O)c8c7[C@@]4(CCN6CC=C)[C@H]2O8)CC[C@@]3(O)[C@H]1C5 [Naloxonazine] | 40 | 25 | 120 | 242 | 109 | 105 | – | – | – | –
CC(C)Cn1c(=O)n(C)c(=O)c2[nH]cnc21 [IBMX] | – | – | – | – | – | – | 140 | 140 | 148 | –
C=CCN1CC[C@]23c4c5ccc(O)c4O[C@H]2C(=O)CC[C@@]3(O)[C@H]1C5 [Naloxone] | 61 | 54 | – | – | 123 | 110 | – | – | – | 104
beta endorphin (YGGFMTSEKSQTPLVTLFKNAIIKNAYKKGE; Beta-endorphin; UniProt P01189 237-267, looked up) [μ-opiate agonist] | – | – | – | – | – | – | 92 | – | – | –

Reference: US20090325857A1, “USE OF OPIOID RECEPTOR ANTAGONISTS” (priority 2006, published 2009)
